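96-well plates; 48 h exposure; 5 concentrations. Endpoints by linear interpolation between flanking doses. Not reached: highest tested concentration assigned. The concentration for 50% growth inhibition is given as GI50. TGI is the concentration that stops growth completely.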
Experiments:
Test in all cases: DTP human tumour cell line panel, 48 h
NCI/ADR-RES ovarian = system: NCI/ADR-RES ovarian
COLO 205 colon = system: COLO 205 colon
NCI-H460 lung = system: NCI-H460 lung
HT29 colon = system: HT29 colon
IGROV1 ovarian = system: IGROV1 ovarian
786-0 renal = system: 786-0 renal
OVCAR-5 ovarian = system: OVCAR-5 ovarian
A549 NSCLC = system: A549 NSCLC
M14 melanoma = system: M14 melanoma
MCF7 breast = system: MCF7 breast
SF-268 CNS = system: SF-268 CNS
UACC-257 melanoma = system: UACC-257 melanoma
HCT-15 colon = system: HCT-15 colon
SN12C renal = system: SN12C renal
SNB-19 CNS = system: SNB-19 CNS
SNB-75 CNS = system: SNB-75 CNS
HOP-62 NSCLC = system: HOP-62 NSCLC
SK-MEL-2 melanoma = system: SK-MEL-2 melanoma
HOP-92 NSCLC = system: HOP-92 NSCLC
OVCAR-4 ovarian = system: OVCAR-4 ovarian
HCT-116 colon = system: HCT-116 colon
K-562 leukemia = system: K-562 leukemia
U251 CNS = system: U251 CNS
UACC-62 melanoma = system: UACC-62 melanoma
MOLT-4 leukemia = system: MOLT-4 leukemia
NCI-H226 lung = system: NCI-H226 lung
HS 578T breast = system: HS 578T breast
RPMI-8226 leukemia = system: RPMI-8226 leukemia
ACHN renal = system: ACHN renal
SF-295 CNS = system: SF-295 CNS
MDA-MB-435 = system: MDA-MB-435
MALME-3M melanoma = system: MALME-3M melanoma
CAKI-1 renal = system: CAKI-1 renal
DU-145 prostate = system: DU-145 prostate
MDA-MB-231 breast = system: MDA-MB-231 breast
SR leukemia = system: SR leukemia
KM12 colon = system: KM12 colon
OVCAR-3 ovarian = system: OVCAR-3 ovarian
CCRF-CEM leukemia = system: CCRF-CEM leukemia
T-47D breast = system: T-47D breast
HL-60(TB) leukemia = system: HL-60(TB) leukemia
OVCAR-8 ovarian = system: OVCAR-8 ovarian
SF-539 CNS = system: SF-539 CNS
PC-3 prostate = system: PC-3 prostate
SK-OV-3 ovarian = system: SK-OV-3 ovarian
SW-620 colon = system: SW-620 colon
UO-31 renal = system: UO-31 renal
A498 renal = system: A498 renal
NCI-H23 lung = system: NCI-H23 lung
HCC-2998 colon = system: HCC-2998 colon
LOX IMVI melanoma = system: LOX IMVI melanoma
SK-MEL-28 melanoma = system: SK-MEL-28 melanoma
TK-10 renal = system: TK-10 renal
SK-MEL-5 melanoma = system: SK-MEL-5 melanoma

O=S(=O)(NCCNc1nccc(-c2c(-c3ccc(F)cc3)nc3sccn23)n1)c1ccccc1
GI50 (NCI/ADR-RES ovarian): 5.6 µM | TGI (NCI/ADR-RES ovarian): > 100 µM | GI50 (COLO 205 colon): 2.23 µM | TGI (COLO 205 colon): > 100 µM | GI50 (NCI-H460 lung): 2.72 µM | TGI (NCI-H460 lung): > 100 µM | GI50 (HT29 colon): 2.31 µM | TGI (HT29 colon): > 100 µM | GI50 (IGROV1 ovarian): 2.99 µM | TGI (IGROV1 ovarian): 32.7 µM | GI50 (786-0 renal): 4.77 µM | TGI (786-0 renal): > 100 µM | GI50 (OVCAR-5 ovarian): 81.1 µM | TGI (OVCAR-5 ovarian): > 100 µM | GI50 (A549 NSCLC): 1.93 µM | TGI (A549 NSCLC): > 100 µM | GI50 (M14 melanoma): 4.94 µM | TGI (M14 melanoma): > 100 µM | GI50 (MCF7 breast): 0.722 µM | TGI (MCF7 breast): > 100 µM | GI50 (SF-268 CNS): 6.63 µM | TGI (SF-268 CNS): > 100 µM | GI50 (UACC-257 melanoma): 10.6 µM | TGI (UACC-257 melanoma): 72.8 µM | GI50 (HCT-15 colon): 3.07 µM | TGI (HCT-15 colon): > 100 µM | GI50 (SN12C renal): 6.86 µM | TGI (SN12C renal): > 100 µM | GI50 (SNB-19 CNS): 9.88 µM | TGI (SNB-19 CNS): > 100 µM | GI50 (SNB-75 CNS): 1.61 µM | TGI (SNB-75 CNS): 56.2 µM | GI50 (HOP-62 NSCLC): 26.4 µM | TGI (HOP-62 NSCLC): > 100 µM | GI50 (SK-MEL-2 melanoma): 7.5 µM | TGI (SK-MEL-2 melanoma): 26.6 µM | GI50 (HOP-92 NSCLC): 1.34 µM | TGI (HOP-92 NSCLC): 8.14 µM | GI50 (OVCAR-4 ovarian): 5.6 µM | TGI (OVCAR-4 ovarian): > 100 µM | GI50 (HCT-116 colon): 2.36 µM | TGI (HCT-116 colon): 14.9 µM | GI50 (K-562 leukemia): 4.35 µM | TGI (K-562 leukemia): > 100 µM | GI50 (U251 CNS): 6.45 µM | TGI (U251 CNS): 26.9 µM | GI50 (UACC-62 melanoma): 5.13 µM | TGI (UACC-62 melanoma): 23.2 µM | GI50 (MOLT-4 leukemia): 4.84 µM | TGI (MOLT-4 leukemia): 57.5 µM | GI50 (NCI-H226 lung): 7.73 µM | TGI (NCI-H226 lung): > 100 µM | GI50 (HS 578T breast): 13.6 µM | TGI (HS 578T breast): > 100 µM | GI50 (RPMI-8226 leukemia): 3.79 µM | TGI (RPMI-8226 leukemia): 33 µM | GI50 (ACHN renal): 1.69 µM | TGI (ACHN renal): > 100 µM | GI50 (SF-295 CNS): 7.64 µM | TGI (SF-295 CNS): 34.2 µM | GI50 (MDA-MB-435): 2.56 µM | TGI (MDA-MB-435): > 100 µM | GI50 (MALME-3M melanoma): 5.82 µM | TGI (MALME-3M melanoma): 51.1 µM | GI50 (CAKI-1 renal): 3.24 µM | TGI (CAKI-1 renal): > 100 µM | GI50 (DU-145 prostate): 5.14 µM | TGI (DU-145 prostate): > 100 µM | GI50 (MDA-MB-231 breast): 16.6 µM | TGI (MDA-MB-231 breast): > 100 µM | GI50 (SR leukemia): 3.46 µM | TGI (SR leukemia): > 100 µM | GI50 (KM12 colon): 4.12 µM | TGI (KM12 colon): 68.3 µM | GI50 (OVCAR-3 ovarian): 11.3 µM | TGI (OVCAR-3 ovarian): 76 µM | GI50 (CCRF-CEM leukemia): 3.5 µM | TGI (CCRF-CEM leukemia): > 100 µM | GI50 (T-47D breast): 1.79 µM | TGI (T-47D breast): 27.3 µM | GI50 (HL-60(TB) leukemia): 16.9 µM | TGI (HL-60(TB) leukemia): 61.7 µM | GI50 (OVCAR-8 ovarian): 4.17 µM | TGI (OVCAR-8 ovarian): > 100 µM | GI50 (SF-539 CNS): 19 µM | TGI (SF-539 CNS): > 100 µM | GI50 (PC-3 prostate): 4 µM | TGI (PC-3 prostate): 78.8 µM | GI50 (SK-OV-3 ovarian): 10.8 µM | TGI (SK-OV-3 ovarian): > 100 µM | GI50 (SW-620 colon): 6.55 µM | TGI (SW-620 colon): > 100 µM | GI50 (UO-31 renal): 1.83 µM | TGI (UO-31 renal): 39.8 µM | GI50 (A498 renal): 5.23 µM | TGI (A498 renal): > 100 µM | GI50 (NCI-H23 lung): 16.2 µM | TGI (NCI-H23 lung): > 100 µM | GI50 (HCC-2998 colon): 22.4 µM | TGI (HCC-2998 colon): > 100 µM | GI50 (LOX IMVI melanoma): 3.41 µM | TGI (LOX IMVI melanoma): 93.1 µM | GI50 (SK-MEL-28 melanoma): 9.36 µM | TGI (SK-MEL-28 melanoma): > 100 µM | GI50 (TK-10 renal): 9.41 µM | TGI (TK-10 renal): 73.5 µM | GI50 (SK-MEL-5 melanoma): 2.45 µM | TGI (SK-MEL-5 melanoma): 13.7 µM

From PubChem BioAssay (NCI)
